In patent US6472348B1, “Pyridone derivatives and herbicides” (Kumiai Chemical Industry Co., Ltd., priority 1996, dated 2002):

Each molecule was assayed on green foxtail (Se) (assay: Test Example 7: crop plant selectivity by upland field soil treatment (corn), herbicidal effects). Settings: dose 6.3 g ai/10a, 21st day after application.
Assay type: in vivo
Design: scale not given here
Method: (§1) (Test on Crop Plant Selectivity by Upland Field Soil Treatment)
(§2) In a plastic pot (surface area: 600 cm^2) filled with sand, corn (Ze), green foxtail (Se), pale smartweed (Po), slender amaranth (Am), common lambsquarters (Ch) and China jute (Ab) were sown and covered with soil. […] The plants were then cultured in a green house, and the evaluation of the herbicidal effects and phytotoxicity was conducted on the 21st day after the application in accordance with the standards as identified in Table 47.
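Wherever Herbicidal effects Ec is given: grade of growth control; 5 = at least 90%; 4 = 70 to 90%; 3 = 50 to 70%; 2 = 30 to 50%; 1 = 10 to 30%; 0 = under 10%.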
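Wherever Herbicidal effects Mo is given: grade of growth control; 5 = at least 90%; 4 = 70 to 90%; 3 = 50 to 70%; 2 = 30 to 50%; 1 = 10 to 30%; 0 = under 10%.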

Question: `COc1cc(-c2ccc(C(F)(F)F)n(C)c2=O)c(Cl)cc1Cl` [Compound 1-205] was tested. Which “Herbicidal effects Se” value did it give?
Answer: 5

These molecules were tested on China jute (Ab) in the same assay as above. Settings: dose 6.3 g ai/10a, 21st day after application.
Assay type: in vivo
Design: scale not given here
Method: as §1, §2

Question: How did the “Herbicidal effects Ab” value turn out when `COc1cc(-c2ccc(C(F)(F)F)n(C)c2=O)c(Cl)cc1Cl` [Compound 1-205] was run?
Answer: 4

What follows are molecules tested on pale smartweed (Po) in the same assay as above. Settings: dose 6.3 g ai/10a, 21st day after application.
Assay type: in vivo
Design: scale not given here
Method: as §1, §2

Question: `COc1cc(-c2ccc(C(F)(F)F)n(C)c2=O)c(Cl)cc1Cl` [Compound 1-205] was tested. Which “Herbicidal effects Po” value did it give?
Answer: 5

What follows are molecules tested on slender amaranth (Am) (assay: Test Example 4: crop plant selectivity by upland field soil treatment (cotton), herbicidal effects). Settings: dose 6.3 g ai/10 a, evaluated 21st day after application.
Assay type: in vivo
Design: scale not given here
In short: (§3)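 Cotton and weeds (incl. China jute, pale smartweed, slender amaranth) sown in sand-filled pots and covered with soil, then soil-treated. Grown in greenhouse; herbicidal effect and cotton phytotoxicity scored on day 21 after application against a rating standard.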

Question: For `COc1cc(-c2ccc(C(F)(F)F)n(C)c2=O)c(Cl)cc1Cl` [Compound 1-205], which “Herbicidal effects Am” value is on record?
Answer: 5

Each molecule was assayed on common lambsquarters (Ch) in the same assay as above. Settings: dose 6.3 g ai/10 a, evaluated 21st day after application.
Assay type: in vivo
Design: scale not given here
In short: as §3

Question: How did the “Herbicidal effects Ch” value turn out when `COc1cc(-c2ccc(C(F)(F)F)n(C)c2=O)c(Cl)cc1Cl` [Compound 1-205] was run?
Answer: 5

What follows are molecules tested on green foxtail (Se) in the same assay as above. Settings: dose 6.3 g ai/10 a, evaluated 21st day after application.
Assay type: in vivo
Design: scale not given here
In short: as §3

Question: With `COc1cc(-c2ccc(C(F)(F)F)n(C)c2=O)c(Cl)cc1Cl` [Compound 1-205] as the molecule, how does the “Herbicidal effects Se” value read?
Answer: 5

Each molecule was assayed on China jute (Ab) in the same assay as above. Settings: dose 6.3 g ai/10 a, evaluated 21st day after application.
Assay type: in vivo
Design: scale not given here
In short: as §3

Question: For `COc1cc(-c2ccc(C(F)(F)F)n(C)c2=O)c(Cl)cc1Cl` [Compound 1-205], which “Herbicidal effects Ab” value is on record?
Answer: 4

Each molecule was assayed on pale smartweed (Po) in the same assay as above. Settings: dose 6.3 g ai/10 a, evaluated 21st day after application.
Assay type: in vivo
Design: scale not given here
In short: as §3

Question: `COc1cc(-c2ccc(C(F)(F)F)n(C)c2=O)c(Cl)cc1Cl` [Compound 1-205] was tested. Which “Herbicidal effects Po” value did it give?
Answer: 5

What follows are molecules tested on barnyardgrass (Ec) (assay: Test Example 1: herbicidal effects by paddy field soil treatment). Settings: 100 g of the active ingredient per 10 ares, 21st day after the application, index 0-5 of Table 47.
Assay type: in vivo
In short: (§4)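 Flooded paddy-soil pots (3 cm water) sown after puddling/leveling; treatment 100 g a.i./10 ares; greenhouse culture; herbicidal effect rated visually on a scoring scale at 21 d post-application.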

Question: For `COc1cc(-c2ccc(C(F)(F)F)n(C)c2=O)c(Cl)cc1Cl` [Compound 1-205], which “Herbicidal effects Ec” value is on record?
Answer: 5

What follows are molecules tested on bulrush (Sc) in the same assay as above. Settings: 100 g of the active ingredient per 10 ares, 21st day after the application, index 0-5 of Table 47.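 Further: grade of growth control; 5 = at least 90%; 4 = 70 to 90%; 3 = 50 to 70%; 2 = 30 to 50%; 1 = 10 to 30%; 0 = under 10%.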
Assay type: in vivo
In short: as §4

Question: `COc1cc(-c2ccc(C(F)(F)F)n(C)c2=O)c(Cl)cc1Cl` [Compound 1-205] was tested. Which “Herbicidal effects Sc” value did it give?
Answer: 5

Each molecule was assayed on monochoria (Mo) in the same assay as above. Settings: 100 g of the active ingredient per 10 ares, 21st day after the application, index 0-5 of Table 47.
Assay type: in vivo
In short: as §4

Question: Which “Herbicidal effects Mo” value does the source give for `COc1cc(-c2ccc(C(F)(F)F)n(C)c2=O)c(Cl)cc1Cl` [Compound 1-205] here?
Answer: 5

Each molecule was assayed on cotton (Go) (assay: Test Example 4: crop plant selectivity by upland field soil treatment (cotton), phytotoxicity). Settings: dose 6.3 g ai/10 a, evaluated 21st day after application.
Assay type: in vivo
Design: scale not given here
In short: as §3

Question: With `COc1cc(-c2ccc(C(F)(F)F)n(C)c2=O)c(Cl)cc1Cl` [Compound 1-205] as the molecule, how does the “Phytotoxicity Go” value read?
Answer: 1

What follows are molecules tested on barnyardgrass (Ec) (assay: Test Example 2: herbicidal effects by upland field soil treatment). Settings: 100 g of the active ingredient per 10 ares, evaluated on the 21st day after application.
Assay type: in vivo
Description: (§5) (Test on Herbicidal Effects by Upland Field Soil Treatment)

Question: `COc1cc(-c2ccc(C(F)(F)F)n(C)c2=O)c(Cl)cc1Cl` [Compound 1-205] was tested. Which “Herbicidal effects Ec” value did it give?
Answer: 5

These molecules were tested on Digitaria ciliaris (Di) in the same assay as above. Settings: 100 g of the active ingredient per 10 ares, evaluated on the 21st day after application.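 Further: grade of growth control; 5 = at least 90%; 4 = 70 to 90%; 3 = 50 to 70%; 2 = 30 to 50%; 1 = 10 to 30%; 0 = under 10%.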
Assay type: in vivo
Description: as §5

Question: `COc1cc(-c2ccc(C(F)(F)F)n(C)c2=O)c(Cl)cc1Cl` [Compound 1-205] was tested. Which “Herbicidal effects Di” value did it give?
Answer: 5

Each molecule was assayed on slender amaranth (Am) in the same assay as above. Settings: 100 g of the active ingredient per 10 ares, evaluated on the 21st day after application.
Assay type: in vivo
Description: as §5

Question: With `COc1cc(-c2ccc(C(F)(F)F)n(C)c2=O)c(Cl)cc1Cl` [Compound 1-205] as the molecule, how does the “Herbicidal effects Am” value read?
Answer: 5

What follows are molecules tested on common lambsquarters (Ch) in the same assay as above. Settings: 100 g of the active ingredient per 10 ares, evaluated on the 21st day after application.
Assay type: in vivo
Description: as §5

Question: Which “Herbicidal effects Ch” value does the source give for `COc1cc(-c2ccc(C(F)(F)F)n(C)c2=O)c(Cl)cc1Cl` [Compound 1-205] here?
Answer: 5

Each molecule was assayed on rice flatsedge (Ci) in the same assay as above. Settings: 100 g of the active ingredient per 10 ares, evaluated on the 21st day after application.
Assay type: in vivo
Description: as §5

Question: For `COc1cc(-c2ccc(C(F)(F)F)n(C)c2=O)c(Cl)cc1Cl` [Compound 1-205], which “Herbicidal effects Ci” value is on record?
Answer: 5

Each molecule was assayed on pale smartweed (Po) in the same assay as above. Settings: 100 g of the active ingredient per 10 ares, evaluated on the 21st day after application.
Assay type: in vivo
Description: as §5

Question: `COc1cc(-c2ccc(C(F)(F)F)n(C)c2=O)c(Cl)cc1Cl` [Compound 1-205] was tested. Which “Herbicidal effects Po” value did it give?
Answer: 5

Each molecule was assayed on corn (Ze) (assay: Test Example 7: crop plant selectivity by upland field soil treatment (corn), phytotoxicity). Settings: dose 6.3 g ai/10a, 21st day after application.
Assay type: in vivo
Design: scale not given here
Method: as §1, §2

Question: With `COc1cc(-c2ccc(C(F)(F)F)n(C)c2=O)c(Cl)cc1Cl` [Compound 1-205] as the molecule, how does the “Phytotoxicity Ze” value read?
Answer: 2

The molecules below were run on wheat (Tr) (assay: Test Example 5: crop plant selectivity by upland field soil treatment (wheat), phytotoxicity). Settings: dose 6.3 g ai/10a, 21st day after application.
Assay type: in vivo
Design: scale not given here
Method: as §1
In a plastic pot (surface area: 600 cm^2) filled with sand, wheat (Tr), Diaitaria ciliaris (Di), green foxtail (Se), pale smartweed (Po), slender amaranth (Am), common lambsquarters (Ch) and China jute (Ab) were sown and covered with soil. […] The plants were then cultured in a green house, and the evaluation of the herbicidal effects and phytotoxicity was conducted on the 21st day after the application in accordance with the standards as identified in Table 47. Symbol—represents “not tested”.

Question: Which “Phytotoxicity Tr” value does the source give for `COc1cc(-c2ccc(C(F)(F)F)n(C)c2=O)c(Cl)cc1Cl` [Compound 1-205] here?
Answer: 1
